Assay results as given in US6803224B2, “Regulated expression of cloned genes using a cascade genetic circuit” (priority 2000, dated 2004).
Where two headings read alike, the source gives them in different places.

Assays:
nahR/Psal = type: cell-based, E. coli; conditions: for Induction ratio of β-galactosidase activity: nahR/Psal, E. coli CC118RSL9, 5 hours at 30° C.
Source text: (§1) This example illustrates how the effector molecules NahR and XylS2 can synergistically amplify gene expression when integrated properly into a cascade genetic circuit.

xylS2/Pm = assay: β-galactosidase induction, simple circuit xylS2/Pm::lacZ in chromosome (E. coli CC118FH26); type: cell-based; conditions: E. coli CC118FH26, 5 hours at 30° C.
Source text: as §1

nahR/Psal::xylS2/Pm [1] = conditions: CC4S2PMT97, salicylate 2 mM, 30° C., 5 hours
Description: The pool of bacteria growing on streptomycin 25 mg/l and rifampicin 50 mg/l was used as recipient in a mating with donor strain E. coli S17-1(λpir) (pCNB4-S2). To select transconjugants, the mating product was plated onto LB plates with rifampicin, streptomycin and kanamycin (25 mg/l). […] Cultures from colonies of the transconjugant were grown overnight in LB medium (yeast extract 5 g/l, tryptone 10 g/l, 5 g/l NaCl) at 37° C. by shaking. Cultures were diluted 1:100 in fresh media without antibiotic selection and incubated for 2 hours at 37° C.
nahR/Psal::xylS2/Pm [2] = type: cell-based, E. coli
Source text: as §1

[3] = system: nahR/Psal::lacZ (pCNB4-lacZ); conditions: CC118λpir pCNB4-lacZ, salicylate 2 mM, 5 hours
Pm::lacZ (pTSPm-lacZ) = conditions: CC118λpir pTSPm-lacZ, salicylate 2 mM, 30° C., 5 hours
[4] = system: xylS2/Pm::lacZ (pCNB2-lacZ); conditions: CC118λpir pCNB2-lacZ, salicylate 2 mM, 5 hours
[5] = system: nahR/Psal::xylS2/Pm::trp'::'lacZ; conditions: Salicylate 2 mM, 30° C., 5 hours, depending on the transconjugant
[6] = system: nahR4/Psal::xylS/Pm::trp'::'lacZ
[7] = system: xylS2/Pm::nahR and Psal::trp'::'lacZ; conditions: E. coli 2NRSL7, salicylate 2 mM

SMILES	Induction ratio of β-galactosidase activity (nahR/Psal)	Induction ratio of β-galactosidase activity (xylS2/Pm)	also measured
CC(=O)Oc1ccccc1C(=O)O [2-Acetyl salicylate]	40	10	–
COc1ccccc1C(=O)O [2-Metoxi-benzoate]	33	10	–
O=C(O)c1cc(Cl)cc(Cl)c1O [3,5-Dichloro-salicylate]	18	1	–
Cc1cccc(C(=O)O)c1 [3-Methyl-benzoate]	11	63	–
Cc1cccc(C(=O)O)c1O [3-Methyl-salicylate]	17	46	–
O=C(O)c1ccc(Cl)cc1O [4-Chloro-salicylate]	33	1	–
Cc1ccc(C(=O)O)c(O)c1 [4-Methyl-salicylate]	21	7	–
O=C(O)c1cc(Cl)ccc1O [5-Chloro-salicylate]	32	3	–
Cc1ccc(O)c(C(=O)O)c1 [5-Methyl-salicylate]	30	19	–
COc1ccc(O)c(C(=O)O)c1 [5-Metoxi-salicylate]	3	46	–
Nc1ccccc1C(=O)O [Antranilate]	22	11	–
O=C(O)c1ccccc1O [Salicylate]	24	13	β-gal activity (nahR/Psal::xylS2/Pm [1]): 39143 Miller Units; induction ratio as part of maximal activity (nahR/Psal::xylS2/Pm [2]; 0.5 mM of salicylate): 90%; β-gal activity (nahR/Psal::xylS2/Pm [2]; CC4S2PMT32, salicylate 2 mM, 30° C., 5 hours): 30383 Miller Units; time at which accumulation of β-galactosidase reached maximum value (nahR/Psal::xylS2/Pm [2]; Salicylate 2 mM added at OD600=0.2): 5 h; β-galactosidase production, share of total protein (nahR/Psal; the simple system, SDS-PAGE and densitometry): less than 0.6%; β-gal activity ([3]; 30° C.): 17952 Miller Units; % β-gal/total proteins ([3]; SDS-PAGE densitometry): 3.9%; β-gal activity (Pm::lacZ (pTSPm-lacZ)): 1358 Miller Units; β-gal activity ([4]; 30° C.): 67002 Miller Units; % β-gal/total proteins ([4]; SDS-PAGE densitometry): 13%; gene expression capacity [5]: 150 to 400 times; β-galactosidase production when induced [5]: 25,000-50,000 MU; XylS accumulation (western blot) ([6]; P. putida cascade cultures induced with salicylate): Increased accumulation of XylS; β-galactosidase produced in the presence of salicylate relative to benzoate ([6]; P. putida cascade transconjugants, 2 mM): about 4 fold; capacity of the reverse-coupled system (induction) [7]: 24 fold
